Experimental data from patent publication US9896418B2, “Aryl ethers and uses thereof” (Peloton Therapeutics, Inc., priority 2013, dated 2018).

Experiments:
[1] = tested on: HIF-2α HIS TAG-PASB Domain; test: HIF-2α Scintillation Proximity Assay (SPA); format: binding
Procedure: The percent inhibition was determined and IC50 values were calculated using the Dotmatics system based on the following equation: % inhibition=[(high control−sample)/(high control−low control)]×100.

786-O cells = test: VEGF ELISA Assay; format: cell-based
Procedure: Each concentration had duplicated wells. About 20 hours later, medium was removed by suction and each well was supplied with 180 μL of growth medium. About 20 μl freshly-made 10× compound stocks were added to each well. […] The EC50 was calculated by GraphPad Prism using the dose-response-inhibition (four parameter) equation. The cell seeded plate was then subjected to CellTiter-Glo luminescence cell viability assay (Promega) by adding 50 μL of Celltiter Glo reagent into each well and shaking the plate for 8 minutes at 550 rpm (Thermomixer R, Eppendorf) then read luminescence signal in plate reader (3 second delay, 0.5 second/well integration time, Synergy 2 multi Detection Microplate reader) immediately.

786-O-Hif-Luc cells = test: Luciferase Assay; format: cell-based; details: about 24 hours, read-out: Mean Luciferease EC50
Procedure: A pool of infected cells were then selected against 2 μg/mL of puromycin (P8833, Sigma) for 10 days followed by limited dilution to select single clones.
Each concentration was tested in triplicate. After about 24 hours, luciferase activity was determined using ONE-Glo Luciferase Assay Reagent (E6110, Promega) following the manufacturer's recommended procedure. EC50 were calculated by using Dotmatics software.

human VEGFA [2] = test: plasma human VEGF level of 786-O xenograft bearing mice; format: in vivo; details: 10, 30 and 100 mg/kg three times at 12 hour intervals, 12 h post treatment vs prior to treatment, FIG. 5
[3] = tested on: renal cell carcinoma 786-O xenograft; test: tumor size in 786-O xenograft bearing mice, single agent; format: in vivo; details: 3, 10, 30 and 100 mg/kg BID for 20 days, FIG. 7
mouse kidney = test: In vivo PK/PD study, kidney mRNA levels by qRT-PCR; parameters: species or system SCID/Biege mice; details: FIG. 3
Procedure: About 5×10^6 renal cell carcinoma 786-O tumor cells (ATCC® CRL-1932™, VHL and HIF-1α null cell line) in PBS and Matrigel (1:1 in volume) were injected subcutaneously at the right flanks of SCID/Biege mice at 6-7 weeks of age for xenograft development. When the xenografts reached about 450 mm^3 in size, the tumor bearing mice were randomly divided into 4 groups (n=4). Plasma was collected prior to treatment by retro-orbital bleeding. […] All animals were sacrificed at 12 hours post last dose. Tumor, kidney, and plasma were collected from each animal. Total RNA was extracted from the tumors and kidneys. The mRNA levels of HIF-1α, HIF-2α and their respective target genes were determined by qRT-PCR (FIG. 1).

human VEGFA [4] = test: In vivo PK/PD study, plasma human VEGFA by ELISA; parameters: species or system SCID/Biege mice; details: 786-O tumor-bearing mice; 10, 30 or 100 mg/kg; FIG. 5
[5] = tested on: 786-O renal cell carcinoma xenograft; test: In vivo efficacy study, 786-O xenograft; parameters: species or system SCID/Biege mice; details: for Tumor size Mean ± SEM: after 20 days of dosing

In the case of `CS(=O)(=NC#N)c1ccc(Oc2cc(F)cc(C#N)c2)c2c1[C@H](O)C(F)(F)C2` (single isomer, unassigned) [Example 245], the IC50 [1] is reported as 32 nM, the EC50 (786-O cells; 786-O cells) is reported as 160 nM and the EC50 (786-O-Hif-Luc cells) is reported as 61 nM.

With `N#Cc1cc(F)cc(Oc2ccc(S(=N)(=O)C(F)(F)F)c3c2CC(F)(F)[C@H]3O)c1` (single isomer, unassigned) [Example 305] the IC50 [1] was < 5 nM, the EC50 (786-O cells; Homo sapiens, 786-0, 786-O cells) was 19.5 nM and the EC50 (786-O-Hif-Luc cells) was 13 nM.

For `N#Cc1cc(F)cc(Oc2ccc(S(=N)(=O)C(F)(F)F)c3c2CC(F)(F)[C@H]3O)c1` (single isomer, unassigned) [Example 306], the IC50 [1] was < 5 nM, the EC50 (786-O cells; 786-O cells) was 19.2 nM and the EC50 (786-O-Hif-Luc cells) was 30 nM.

In the case of `CS(=O)(=NC#N)c1ccc(Oc2cc(F)cc(C#N)c2)c2c1[C@H](O)C(F)(F)[C@@H]2F` (single isomer, unassigned) [Example 317], the IC50 [1] is reported as < 5 nM, the EC50 (786-O cells; 786-O cells) is reported as 14 nM and the EC50 (786-O-Hif-Luc cells) is reported as 12 nM.

For `N#Cc1cc(F)cc(Oc2ccc(S(=O)(=O)C(F)F)c3c2CC(F)(F)[C@H]3O)c1` [Compound 15, 3-[(1S)-7-(difluoromethylsulfonyl)-2,2-difluoro-1-hydroxy-indan-4-yl]oxy-5-fluoro-benzonitrile], the “plasma level of human VEGFA” value (human VEGFA [2]) was “reduced”, the tumor size [3] was “tumor size reduction and regression” and the “Kidney EPO mRNA level” value (mouse kidney) was “reduced”. For the same compound, the “Kidney PGK1 mRNA level” value (mouse kidney) was “remained unchanged”, the “plasma level of human VEGFA” value (human VEGFA [4]) was “significant reduction” and the “Tumor size Mean ± SEM” value ([5]; 3 mg/kg BID) was 136.29 ± 15.77 mm^3. The “Tumor size Mean ± SEM” value ([5]; 10 mg/kg BID) was 45.36 ± 2.22 mm^3, the “Tumor size Mean ± SEM” value ([5]; 30 mg/kg BID) was 35.63 ± 2.26 mm^3 and the “Tumor size Mean ± SEM” value ([5]; 100 mg/kg BID) was 37.11 ± .6 mm^3. The “Tumor size change vs vehicle” value ([5]; 3, 10, 30 and 100 mg/kg BID, 20 days, t-Test) was “statistically significant reduction of tumor size”.
